Data on 2 compounds can be found in patent US8618023B2, “Microbiocides” (Syngenta Crop Protection, LLC, priority 2006, dated 2013).

SMILES strings stand for the structures.

In general, melting point refers to the temperature, or range, at which the solid turns liquid. Regarding `Cn1cc(C(=O)NC2CC2c2ccc(Cl)cc2)c(C(F)F)n1` (centres unmarked) [Compound 1.001, 3-difluoromethyl-1-methyl-1H-pyrazole-4-carboxylic acid [2-(4-chlorophenyl)-cyclopropyl]-amide], the melting point stood at 127 °C.
Then `O=C(N[C@@H]1C[C@]1(F)c1ccc(Cl)cc1)c1ccccc1C(F)(F)F` [Compound 6.004, N-[(1R,2S)-2-(4-chlorophenyl)-2-fluoro-cyclopropyl]-2-trifluoromethyl-benzamide], with 204 to 206 °C.
